Data published in PubChem BioAssay AID248 (DTP/NCI, 2004).
Several values for one entry are separate records, joined by “and”; a condition that tells them apart may be missing. Equal entries are not always repeated. Inconclusive results and toxic doses are left out. Cut-off read from the data, not from the text of the source: active = T/C of 150% or more; inactive = T/C below 125%.

System: L1210 leukemia ip in BDF1 mice, survival T/C
Assay: NCI In Vivo Anticancer Drug Screen. Data for tumor model L1210 Leukemia (intraperitoneal) in B6D2F1 (BDF1) mice
Conditions: endpoint: mean survival time, higher = longer survival
Method in brief: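 In this screen, tumor-bearing mice given compound are compared to those given vehicle, and their survival values are reported as a treated-to-control quotient.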

[1] = dose: 100.0 mg/kg/injection, schedule: Q01DX001 (ip), vehicle: saline
[2] = dose: 200.0 mg/kg/injection, schedule: Q01DX001 (ip), vehicle: saline
[3] = dose: 400.0 mg/kg/injection, schedule: Q01DX001 (ip), vehicle: saline
[4] = dose: 100.0 mg/kg/injection, schedule: Q01DX001 (ip), vehicle: Klucel (hydroxypropylcellulose) (HPC)
[5] = dose: 200.0 mg/kg/injection, schedule: Q01DX001 (ip), vehicle: Klucel (hydroxypropylcellulose) (HPC)
[6] = dose: 12.5 mg/kg/injection, schedule: Q01DX009 (ip), vehicle: Klucel (hydroxypropylcellulose) (HPC)
[7] = dose: 25.0 mg/kg/injection, schedule: Q01DX009 (ip), vehicle: Klucel (hydroxypropylcellulose) (HPC)
[8] = dose: 50.0 mg/kg/injection, schedule: Q01DX009 (ip), vehicle: Klucel (hydroxypropylcellulose) (HPC)
[9] = dose: 100.0 mg/kg/injection, schedule: Q01DX009 (ip), vehicle: Klucel (hydroxypropylcellulose) (HPC)
[10] = dose: 200.0 mg/kg/injection, schedule: Q01DX009 (ip), vehicle: Klucel (hydroxypropylcellulose) (HPC)
[11] = dose: 100.0 mg/kg/injection, schedule: Q01DX009 (ip), vehicle: saline
[12] = dose: 200.0 mg/kg/injection, schedule: Q01DX009 (ip), vehicle: saline
[13] = dose: 400.0 mg/kg/injection, schedule: Q01DX009 (ip), vehicle: saline
[14] = dose: 100.0 mg/kg/injection, schedule: Q01DX001 (ip), vehicle: saline with Tween-80
[15] = dose: 200.0 mg/kg/injection, schedule: Q01DX001 (ip), vehicle: saline with Tween-80
[16] = dose: 400.0 mg/kg/injection, schedule: Q01DX001 (ip), vehicle: saline with Tween-80
[17] = dose: 100.0 mg/kg/injection, schedule: Q04DX002 (ip), vehicle: Klucel (hydroxypropylcellulose) (HPC)
[18] = dose: 200.0 mg/kg/injection, schedule: Q04DX002 (ip), vehicle: Klucel (hydroxypropylcellulose) (HPC)
[19] = dose: 400.0 mg/kg/injection, schedule: Q04DX002 (ip), vehicle: Klucel (hydroxypropylcellulose) (HPC)
[20] = dose: 50.0 mg/kg/injection, schedule: Q01DX001 (ip), vehicle: saline
[21] = dose: 100.0 mg/kg/injection, schedule: Q04DX003 (ip), vehicle: saline
[22] = dose: 200.0 mg/kg/injection, schedule: Q04DX003 (ip), vehicle: saline
[23] = dose: 400.0 mg/kg/injection, schedule: Q04DX003 (ip), vehicle: saline

Measured: T/C

O=C(Nc1ccc([N+](=O)[O-])cc1)N(c1cc(Cl)ccn1)C1CCCCC1
inactive: [1] 96 % of control | [2] 90 % of control | [3] 96 % of control

CCCCCCCCCCCSc1ccc2ccccc2c1
inactive: [4] 95 % of control | [5] 90 % of control

C[C@]12CC[C@H]3[C@@H](CC[C@]4(O)C[C@@H](O)CC[C@]34C=O)[C@@]1(O)CC[C@@H]2C1=CC(=O)OC1
inactive: [6] 102 % of control | [7] 104 % of control | dose: 50.0 mg/kg/injection, schedule: Q01DX001 (ip), vehicle: carboxymethylcellulose (CMC) 98 % of control | [8] 102 % of control | dose: 50.0 mg/kg/injection, schedule: Q01DX009 (ip), vehicle: carboxymethylcellulose (CMC) 103 % of control | dose: 75.0 mg/kg/injection, schedule: Q04DX003 (ip), vehicle: Klucel (hydroxypropylcellulose) (HPC) 102 % of control | dose: 100.0 mg/kg/injection, schedule: Q01DX001 (ip), vehicle: carboxymethylcellulose (CMC) 96 % of control | [9] 109 % of control | dose: 100.0 mg/kg/injection, schedule: Q01DX009 (ip), vehicle: carboxymethylcellulose (CMC) 108 % of control | dose: 150.0 mg/kg/injection, schedule: Q04DX003 (ip), vehicle: Klucel (hydroxypropylcellulose) (HPC) 98 % of control | dose: 200.0 mg/kg/injection, schedule: Q01DX001 (ip), vehicle: carboxymethylcellulose (CMC) 93 % of control | [10] 112 % of control | dose: 300.0 mg/kg/injection, schedule: Q04DX003 (ip), vehicle: Klucel (hydroxypropylcellulose) (HPC) 101 % of control

CN(C)c1ccc(/C=C/C=N/Nc2nnc(N/N=C/C=C/c3ccc(N(C)C)cc3)c3ccccc23)cc1
inactive: dose: 50.0 mg/kg/injection, schedule: Q01DX001 (ip), vehicle: other 109 % of control | dose: 100.0 mg/kg/injection, schedule: Q01DX001 (ip), vehicle: other 100 % of control | dose: 200.0 mg/kg/injection, schedule: Q01DX001 (ip), vehicle: other 103 % of control | dose: 400.0 mg/kg/injection, schedule: Q01DX001 (ip), vehicle: other 100 % of control

CCOC(=O)C1CCC(C(=O)OCC)N1C (stereo not given)
inactive: [1] 97 % of control | [11] 96 % of control | [2] 88 % of control | [12] 98 % of control | [3] 95 % of control | [13] 100 % of control

O=C(CS(=O)(=O)O)Nc1ccccc1
inactive: [14] 94 % of control | [15] 97 % of control | [16] 100 % of control

CC[N+](C)(CC)CCNC(c1ccccc1)C(Cl)(Cl)Cl (stereo not given)
inactive: dose: 5.0 mg/kg/injection, schedule: Q01DX001 (ip), vehicle: saline 92 % of control | dose: 10.0 mg/kg/injection, schedule: Q01DX001 (ip), vehicle: saline 95 % of control | dose: 20.0 mg/kg/injection, schedule: Q01DX001 (ip), vehicle: saline 103 % of control | dose: 40.0 mg/kg/injection, schedule: Q01DX001 (ip), vehicle: saline 95 % of control | dose: 80.0 mg/kg/injection, schedule: Q01DX001 (ip), vehicle: saline 106 % of control | [1] 102 % of control

N#CCCCOc1cccc([N+](=O)[O-])c1
inactive: dose: 100.0 mg/kg/injection, schedule: Q01DX009 (ip), vehicle: saline with Tween-80 93 % of control | dose: 200.0 mg/kg/injection, schedule: Q01DX009 (ip), vehicle: saline with Tween-80 102 % of control

C(=C(\C[P+](c1ccccc1)(c1ccccc1)c1ccccc1)c1ccccc1)/c1ccccc1
inactive: dose: 5.0 mg/kg/injection, schedule: Q01DX009 (ip), vehicle: saline with Tween-80 97 % of control | dose: 5.0 mg/kg/injection, schedule: Q04DX003 (ip), vehicle: saline with Tween-80 93 % of control | dose: 20.0 mg/kg/injection, schedule: Q04DX003 (ip), vehicle: saline with Tween-80 86 % of control

CSc1ccc(OC(=O)Nc2ccccc2C)cc1
inactive: [17] 95 % of control | [18] 106 % of control | [19] 114 % of control

CCCCCCC(CCCCCC)c1ccccc1
inactive: [14] 90 % of control | [15] 93 % of control

O=C1NC(c2ccccc2)C(=O)N1CCN(CCCl)CCCl (stereo not given)
inactive: dose: 3.12 mg/kg/injection, schedule: Q01DX009 (ip), vehicle: saline 102 % of control | dose: 3.12 mg/kg/injection, schedule: Q04DX003 (ip), vehicle: saline 98 % of control | dose: 6.25 mg/kg/injection, schedule: Q01DX009 (ip), vehicle: saline 97 % of control | dose: 6.25 mg/kg/injection, schedule: Q04DX003 (ip), vehicle: saline 106 % of control | dose: 12.5 mg/kg/injection, schedule: Q01DX009 (ip), vehicle: saline 100 % of control | dose: 12.5 mg/kg/injection, schedule: Q04DX003 (ip), vehicle: saline 103 % of control | dose: 25.0 mg/kg/injection, schedule: Q04DX003 (ip), vehicle: saline 115 % of control

CC(Cl)CCN1CCCCC1 (stereo not given)
inactive: [20] 104 % of control

BrCc1cc2ccccc2cc1CBr
inactive: [6] 98 % of control | [7] 96 % of control | dose: 25.0 mg/kg/injection, schedule: Q04DX003 (ip), vehicle: saline with Tween-80 100 % of control | [8] 93 % of control and 107 % of control | dose: 50.0 mg/kg/injection, schedule: Q04DX003 (ip), vehicle: saline with Tween-80 104 % of control | dose: 100.0 mg/kg/injection, schedule: Q04DX003 (ip), vehicle: saline with Tween-80 96 % of control

CCOC(=O)C(CCCO)C(=O)OCC
inactive: [14] 98 % of control | [15] 96 % of control | [16] 91 % of control

CNC(=O)c1nc(C)c(C)nc1OCc1ccccc1
inactive: [11] 106 % of control | [21] 96 % of control | [12] 92 % of control | [22] 94 % of control | [13] 87 % of control | [23] 96 % of control

CC#CCCC(=O)OCC
inactive: [17] 104 % of control | [18] 106 % of control | [19] 95 % of control

CC(=O)NC1=C(c2ccccc2)C(=O)c2ccccc21
inactive: dose: 45.0 mg/kg/injection, schedule: Q01DX001 (ip), vehicle: Klucel (hydroxypropylcellulose) (HPC) 107 % of control | dose: 65.0 mg/kg/injection, schedule: Q01DX001 (ip), vehicle: Klucel (hydroxypropylcellulose) (HPC) 96 % of control | [4] 100 % of control and 104 % of control | dose: 100.0 mg/kg/injection, schedule: Q04DX003 (ip), vehicle: Klucel (hydroxypropylcellulose) (HPC) 107 % of control | dose: 150.0 mg/kg/injection, schedule: Q01DX001 (ip), vehicle: Klucel (hydroxypropylcellulose) (HPC) 96 % of control | [5] 96 % of control and 117 % of control and 91 % of control | dose: 200.0 mg/kg/injection, schedule: Q04DX003 (ip), vehicle: Klucel (hydroxypropylcellulose) (HPC) 107 % of control | dose: 300.0 mg/kg/injection, schedule: Q01DX001 (ip), vehicle: Klucel (hydroxypropylcellulose) (HPC) 104 % of control | dose: 400.0 mg/kg/injection, schedule: Q01DX001 (ip), vehicle: Klucel (hydroxypropylcellulose) (HPC) 97 % of control and 102 % of control and 103 % of control | dose: 400.0 mg/kg/injection, schedule: Q04DX003 (ip), vehicle: Klucel (hydroxypropylcellulose) (HPC) 97 % of control

CCOC(=O)N(CC)c1ccccc1
inactive: [9] 103 % of control | [21] 88 % of control | [10] 107 % of control | [22] 101 % of control | dose: 400.0 mg/kg/injection, schedule: Q01DX009 (ip), vehicle: Klucel (hydroxypropylcellulose) (HPC) 102 % of control | [23] 98 % of control

O=C(O)CC1CCCNC1 (stereo not given)
inactive: dose: 75.0 mg/kg/injection, schedule: Q04DX003 (ip), vehicle: saline 100 % of control | dose: 150.0 mg/kg/injection, schedule: Q04DX003 (ip), vehicle: saline 103 % of control | dose: 300.0 mg/kg/injection, schedule: Q04DX003 (ip), vehicle: saline 101 % of control

Cc1cnc2cccc(C)c2c1Cl
inactive: [20] 101 % of control | [1] 97 % of control | [2] 95 % of control
